The target in data set [1] is Mcl-1/Bim (Homo sapiens, UniProt Q07820). Briefly: Mcl-1/Bim ELISA (GST-Mcl-1 binding to biotinylated Bim BH3 peptide). The settings on record: for selectivity for Mcl-1 over Bcl-xL (Mcl-1/Bim over Bcl-xL/Bim): ratio of ELISA IC50 values. The procedure, abridged:
(§1)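 Competition ELISA: streptavidin-captured biotin-Bim BH3 (40 nM) exposed 2 h to GST-Mcl-1 or GST-Bcl-xL (10 nM) preincubated 15 min with compound in PBS. Readout via HRP-anti-GST and TMB, A450.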

Data set [2] addresses Bcl-xL/Bim (Homo sapiens, UniProt Q07817). Put plainly: Bcl-xL/Bim ELISA (GST-Bcl-xL binding to biotinylated Bim BH3 peptide). An outline of the steps: as §1
Background: ELISA stands for enzyme-linked immunosorbent assay.

The test system of data set [3] is human breast cancer MDA-MB-468 cells. Briefly: Western blotting of MDA-MB-468 cells treated with marinopyrrole derivatives (Mcl-1, Bim, caspase 3). Type of data set: cell-based. The settings on record: 10 μM for 16 h. The method, then: The cells were then processed for western blotting according to a previously described methods (Balasis M E et al. Clin. Cancer Res. 2011, 17, 2852-2862). […] However, none of the cyclic marinopyrroles were active in intact cells.
ELISAs were performed using a modified version of a previously described procedure (Doi K et al. J. Biol. Chem. 2012, 287, 10224-10235). Briefly, 40 nM of biotinylated Bim BH3 peptide (Biomatik) in SuperBlock blocking buffer (Pierce) was incubated in high-binding capacity streptavidin-coated plates (Pierce) for 2 h. Compounds were diluted in 120 μl of PBS containing 10 nM of GST-Mcl-1 or GST-Bcl-xL in 1.5 mL tubes for 15 min. Wells were washed with wash buffer (PBS containing 0.05% Tween-20) and then 100 μL of the compound/GST-protein mixture was transferred to the wells. The plates were incubated for 2 h, and then the wells were washed with wash buffer. HRP-conjugated anti-GST antibody (Bethyl Laboratories) was diluted 1:2000 in SuperBlock and 100 μL was transferred to each well. The plate was incubated for 1 h, and then the wells were washed with wash buffer followed by PBS. 100 μL of SureBlue TMB Microwell Peroxidase Substrate (VWR) was added to each well and plates were developed for 5-10 min. 100 μL of 1 N HCl was added to each well to stop the reaction and absorbance was read at 450 nm using a μQuant plate reader (Bio-Tek).

Data set [4] is described as follows: Solubility. The conditions noted are these: aqueous solubility.
Data set [5] can be described thus: Stability in 1 M NaOH at room temperature, HPLC analysis. The conditions noted are these: for remained intact: after 48 hours.
Data set [6] in a line: pKa and log p calculated using ChemAxon Software Version 5.12.3. The conditions noted are these: difference to phenol pKa […].
Method: Both pKa and log p values were calculated using ChemAxon Software Version 5.12.3 (Dixon S L and Jurs P C. J. Comp. Chem. 1993, 14, 1460-1467; Csizmadia F et al. J. Pharm. Sci. 1997, 86, 865-871).
Data set [7] has as its system Bim/Mcl-1 and Bim/Bcl-xL in MDA-MB-468 cancer cells. Put plainly: Co-immunoprecipitation and densitometry of Bim/Mcl-1 and Bim/Bcl-xL in treated cells. Type of data set: cell-based, human. The conditions noted are these: compared with 1.
The subject of data set [8] is MDA-MB-468 cells. Briefly: Western blots of MDA-MB-468 cells treated with 1 and I-2 (Bcl-2 family proteins, Caspase 3 and PARP cleavage). Type of data set: cell-based, human. For orientation: In western blotting, separated proteins are transferred to a membrane and probed.
Data set [9] relates to MDA-MB-468 cells. Briefly: MTT assay (anchorage-dependent proliferation). Type of data set: cell-based, human. The conditions noted are these: 48 hours, compared with 1. On the technique in general: Tetrazolium assays rely on reduction of a dye to a coloured formazan, in cell work by metabolically active cells.
Data set [10] concerns A-549 human lung cancer cells. Put plainly: MTT assay (anchorage-dependent proliferation). Type of data set: cell-based. The settings on record: 48 hours, compared with 1.
Data set [11] deals with MDA-MB-468 cells. Briefly: Soft agar assay (anchorage-independent growth). Type of data set: cell-based, human. The settings on record: 21 days, compared with 1.
The test system of data set [12] is A-549 human lung cancer cells. Put plainly: Soft agar assay (anchorage-independent growth). Type of data set: cell-based. The settings on record: 21 days, compared with 1.
For data set [13], the system named is A-549 xenografts. Put plainly: A-549 xenografts in nude mice. Type of data set: in vivo. The settings on record: 4 mpk/day for 14 days.
In data set [14] the test system is cultured human cancer cells. Put plainly: Induction of apoptosis in cultured human cancer cells. Type of data set: cell-based. The settings on record: intact cell studies.
Data set [15] deals with T1, Mcl-1 (Homo sapiens, UniProt Q07820). Briefly: Fluorescence-quenching (FQ) assay based on intrinsic Trp fluorescence of Mcl-1. Type of data set: binding. The text has this:
To investigate direct binding of compounds to Mcl-1, a fluorescence-quenching (FQ) assay based on the intrinsic Trp fluorescence of Mcl-1 was established.
Target sequence in this assay (Q07820 whole entry): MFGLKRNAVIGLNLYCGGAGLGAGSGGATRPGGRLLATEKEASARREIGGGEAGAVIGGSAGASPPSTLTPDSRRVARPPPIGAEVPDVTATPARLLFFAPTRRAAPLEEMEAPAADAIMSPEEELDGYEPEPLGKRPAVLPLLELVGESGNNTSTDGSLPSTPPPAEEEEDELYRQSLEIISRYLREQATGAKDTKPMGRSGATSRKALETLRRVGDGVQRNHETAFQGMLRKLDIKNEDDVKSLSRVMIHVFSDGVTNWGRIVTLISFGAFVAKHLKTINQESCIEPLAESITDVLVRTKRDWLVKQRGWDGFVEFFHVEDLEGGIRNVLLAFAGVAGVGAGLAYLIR

In data set [16] the target is T1, Mcl-1. Briefly: 15N-HSQC NMR chemical shift perturbation with docking. Set-up: MBP (cleaved yes); made in house; host or cells: E. coli BL21(DE3) Codon+. The conditions noted are these: HSQC chemical shift changes. Type of data set: binding. As for the experimental part:
^15N-HSQC spectra were recorded on ^15N-labelled Mcl-1 at 0.1 mM prepared in 50 mM potassium phosphate solution at pH 6.5, 50 mM NaCl and 1 mM DTT. Titrations up to 100 μM of 1-21 and 1-18 compounds were performed. NMR spectra were acquired at 25° C. on an Inova 600 MHz spectrometer equipped with a cryoprobe and analyzed in CCPNMR (Vranken W F, et al. Proteins. 2005, 59, 687-696).
NMR-guided docking of 1-21 into the X-ray crystal structure of Mcl-1 (PDB ID: 3KJ0) was performed using Glide (Maestro, Schrodinger) (Friesner R A et al. J. Med. Chem. 2004, 47, 1739-1749; Friesner R A, et al. J. Med. Chem. 2006, 49, 6177-6196; Halgren T A, et al. J. Med. Chem. 2004, 47, 1750-1759; Gavathiotis E, et al. Nat. Chem. Biol. 2012, 8, 639-645). The lowest-energy docking pose is consistent with the observed NMR-chemical shift perturbation data. Pymol is used for preparing the highlighted poses.
Structural characterization of I-20 and II-4 was performed using NMR. HSQC spectra were collected at different ratios of compound:Mcl-1. […] The residues that undergo chemical shift changes upon compounds' binding onto the structure of Mcl-1 and the compounds' binding location were mapped (FIG. 6B). An induced fit molecular docking approach guided by the NMR chemical shifts was used to determine the structural models of the compounds bound to Mcl-1 using Glide software (Schrodinger; FIG. 6C). […]
Target sequence in this assay (Q07820 172-327): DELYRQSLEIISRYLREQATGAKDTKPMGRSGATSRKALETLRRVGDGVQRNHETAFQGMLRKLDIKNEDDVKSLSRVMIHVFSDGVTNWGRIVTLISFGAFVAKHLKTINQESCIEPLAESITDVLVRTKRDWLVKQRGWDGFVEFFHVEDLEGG

The mark [17] stands for this setting: Table 2-B, n ≥ 3, read-out: Mcl-1/Bim IC50 (average ± SEM).
The mark [18] stands for this setting: Table 3-A structure I, Mcl-1 at 10 nM, n ≥ 3, read-out: Mcl-1-Bim IC50 (average ± SEM).
[19] abbreviates: read-out: IC50 to inhibit the binding of Mcl-1 to Bim.
The mark [20] stands for this setting: Table 2-B, n ≥ 3 unless specified, read-out: Bcl-xL/Bim IC50 (average ± SEM).
[21] abbreviates: Table 3-A structure I, Bcl-xL at 10 nM, n ≥ 3, read-out: Bcl-xL-Bim IC50 (average ± SEM).

Entries after “also recorded” stand apart in the source; their conditions may differ. Where two headings read alike, the source gives them in different places.

Sequence of Mcl-1/Bim (Q07820 whole entry): as the sequence (Q07820 whole entry) above
Sequence of Bcl-xL/Bim (Q07817 whole entry): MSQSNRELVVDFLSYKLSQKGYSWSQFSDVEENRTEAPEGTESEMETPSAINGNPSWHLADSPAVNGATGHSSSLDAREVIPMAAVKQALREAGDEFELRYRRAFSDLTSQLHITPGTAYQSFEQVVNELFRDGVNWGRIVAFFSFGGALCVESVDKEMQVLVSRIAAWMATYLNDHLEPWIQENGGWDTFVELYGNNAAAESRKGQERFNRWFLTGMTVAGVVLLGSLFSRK

In the case of `O=C(c1ccccc1O)c1[nH]c(Cl)c(Cl)c1-n1c(C(=O)c2ccccc2O)cc(Cl)c1Cl` (racemic) [(±)-1, (±)-marinopyrrole A, reference compound], the IC50 was 8.9 ± 1 µM in data set [1] (Table 1, Mcl-1 at 10 nM, n ≥ 3, read-out: Mcl-1-Bim IC50 (average ± SEM)); 8.9 ± 1 µM in data set [1] (Table 2-A, n ≥ 3, read-out: Mcl-1/Bim IC50 (average ± SEM)); 8.9 ± 1 µM in data set [1] (setting [17]); 8.9 ± 1 µM in data set [1] (setting [18]); 8.9 µM in data set [1] (setting [19]); 16.4 ± 3.3 µM in data set [2] (Table 1, Bcl-xL at 10 nM, n ≥ 3, read-out: Bcl-xL-Bim IC50 (average ± SEM)). In addition, the IC50 in data set [2] (Table 2-A, n ≥ 3, read-out: Bcl-xL/Bim IC50 (average ± SEM)) was determined as 16.4 ± 3.3 µM; in data set [2] (setting [20]), 16.4 ± 3.3 µM; in data set [2] (setting [21]), 16.4 ± 3.3 µM; in data set [2] (read-out: IC50 to inhibit Bcl-xL/Bim binding) it was 16.4 µM. For the same compound, the “selectivity for Mcl-1 over Bcl-xL (Mcl-1/Bim over Bcl-xL/Bim)” value in data set [1] was 1.8 fold; in data set [1] (listed as marinopyrrole A), “two fold”. The “effect on levels of Mcl-1 and Bim and cleavage of caspase 3” value in [3] is “able to decrease Mcl-1 and Bim and to cleave caspas 3”. In addition, the solubility in words result in [4] was “poor solubility”. Besides, in data set [5] (1 to 48 hours), the stability in words result is “highly stable”. This compound also came in with a remained intact in [5] of 76%. Further, the “pKa values lower than that of phenol” value in data set [6] was 1.6-2.2 log units.

For `C#Cc1ccc(C(=O)c2[nH]c(Cl)c(Cl)c2-n2c(C(=O)c3ccc(C#C)cc3O)cc(Cl)c2Cl)c(O)c1` [Compound 1-3, (4,4′,5,5′-Tetrachloro-1′H-1,3′-bipyrrole-2,2′-diyl)bis((4-ethynyl-2-hydroxyphenyl)methanone)], in data set [1], the “activity against Mcl-1/Bim in words” value is given as “more potent than 1”. Besides, the IC50 in data set [1] (setting [17]) stood at 3.9 ± 0.2 µM; in [1] (setting [18]), 3.9 ± 0.2 µM; in [1] (setting [19]), 3.7 µM; in [2] (setting [20]) it was 5.6 ± 0.5 µM; in [2] (setting [21]), 5.6 ± 0.5 µM. Further, the “selectivity profile Mcl-1 vs Bcl-xL in words” value in data set [1] (from Mcl-1/Bim and Bcl-xL/Bim ELISA) is “dual Mcl-1 and Bcl-XL antagonists”. Also, the “activity against Bcl-xL/Bim in words” value in data set [2] was “more potent than 1”. The “inhibition of binding of Mcl-1 and Bcl-xL to Bim in cells” value in [7] is recorded as “more potent than 1”. Moreover, the “effect on Bcl-2 and Bax levels” value in data set [8] is reported as “little effects”. In [8], the “effect on Bim level” value is listed as “slightly decreased”. Further, the “decreasing levels of Mcl-1 and Bcl-xL and increasing levels of Bak and Bad” value in [8] (compared with 1) is listed as “more potent than 1”. In data set [8] (compared with 1), the “inducing apoptosis (Caspase 3 and PARP cleavage)” value is given as “more potent than 1”. Also, the “inhibiting anchorage-dependent proliferation (MTT)” value in [9] and in data set [10] was “more potent than 1” throughout. The “inhibiting anchorage-independent proliferation (soft agar)” value in data set [11] and in [12] was “more potent than 1” in each case. The “effect on the body weights of the mice” value in data set [13] is “little effect”. Besides, the “increase of tumor volumes from day 1 to day 14” value in data set [13] (vehicle-treated mice 160±10%) came out at 45±30%. Moreover, the induction of apoptosis entry in data set [14] is reported as “induced apoptosis”. The same compound gave a remained intact in [5] of 81%.

A word on the Kd: it is the equilibrium constant for the complex coming apart. For `O=C(c1ccc(P(=O)(O)O)cc1O)c1[nH]c(Cl)c(Cl)c1-n1c(C(=O)c2ccc(P(=O)(O)O)cc2O)cc(Cl)c1Cl` [Compound I-20, ((4,4′,5,5′-Tetrachloro-1′H-[1,3′-bipyrrole]-2,2′-dicarbonyl)bis(3-hydroxy-4,1-phenylene))diphosphonic acid], the IC50 in data set [1] (setting [18]) was found to be 10.9 ± 3.1 µM; in data set [2] (setting [21]), 27.3 ± 7.2 µM. Besides, the “activity against Mcl-1/Bim in words” value in data set [1] (listed as 8a) is on record as “slightly less potent than 1; also recorded: less active”. In data set [2], the “activity against Bcl-xL/Bim in words” value is reported as “less active”. For the same compound, in [3], the “effect on levels of Mcl-1 and Bim and cleavage of caspase 3” value is given as “little effect on Mcl-1, Bim or caspase 3”. Further, in [15], the “direct binding to Mcl-1 by fluorescence quenching” value is “directly bind to Mcl-1”. Moreover, the Kd in data set [15] (binding isotherms, read-out: Kd (binding constant)) turned out to be 3.5 µM. Besides, the solubility in words result in [4] is reported as “improvement in aqueous solubility”. In data set [16], the “binding to Mcl-1 by NMR” value was “binding to the BH3 pocket of Mcl-1; also recorded: confirmed binding to Mcl-1”.

The values are drawn from patent US10358454B2, “Marinopyrrole derivatives and methods of making and using same” (H. LEE MOFFITT CANCER CENTER AND RESEARCH INSTITUTE, INC., priority 2014, dated 2019).
